For assay [1] the following is noted: following RT; by decreasing free radical injury; cited from earlier work.
The next assay concerns C57BL/6 mice. Nature of the assay: Radiation fibrosis model in C57BL/6 mice (15 Gy thoracic RT), SMA immunostaining of lung. The following applies: C57BL/6 lungs 20 wks post-15 Gy; 77427 IP twice weekly for 20 weeks; vs RT+PBS. It counts as in vivo, mouse. An excerpt:
Our first investigation tested the hypothesis that GRP contributes to RTP using an established mouse model of radiation fibrosis in C57BL/6 mice, which are prone to fibrosis. Following exposure to high-dose thoracic radiation (15 Gy), we treated mice intraperitoneally (IP) with either PBS or GRP blockade by using small molecule 77427. We quantified results of immunohistochemistry by using quantitative image analysis with ImageJ to determine whether GRP contributes to RT-induced inflammatory responses and/or fibrosis, specifically including assessment of active TGFβsignaling^7. As noted above, the first investigation (FIGS. 1 and 2) tested the hypothesis that GRP contributes to RTP using an established mouse model of radiation fibrosis in C57BL/6 mice. Following exposure to high-dose thoracic radiation (15 Gy), we treated mice intraperitoneally (IP) with either PBS or GRP blockade by using small molecule 77427. We quantified results of immunohistochemistry by using quantitative image analysis with ImageJ to determine whether GRP contributes to RT-induced inflammatory responses and/or fibrosis, specifically including assessment of active TGFβ signaling^7. In FIG. 1B, note that there is extensive immunostaining for myofibroblasts in the alveolar walls (arrows) in mice exposed to RT 20 weeks earlier and given only PBS. […]

Assay [2] has as its system C57L/J (L/J) mice. Nature of the assay: C57L/J model of radiation pneumonitis (15 Gy thoracic RT), SMA immunostaining of lung. The assay is classed as in vivo, mouse. The protocol:
(§1) In a second series of experiments, C57L/J (L/J) mice were treated with 15 Gy of thoracic radiation. L/J mice are exquisitely sensitive to even low doses of RT, and rapidly develop both pneumonitis and fibrosis. Groups of L/J mice were injected intraperitoneally with PBS, 77427 or 2A11, given as a single dose (20 nmole per mouse) at 24 hours post-RT.
It was recently observed by Zelcko Vujaskovic et al that C57L/J (L/J) mice have radiation sensitivity very similar to humans^19, making the L/J model of radiation-pneumonitis most clinically relevant. Using this L/J model, we treated mice IP with a single dose of 77427 (10 nmol per mouse) given IP at 24 hours post-RT. At 15 weeks later, we observed early evidence of pulmonary fibrosis that was abrogated by the single dose of 77427 (FIG. 3). […] Therefore, we have included a claim that GRP blockade may be a treatment to prevent, arrest, or reverse pulmonary arteriopathy leading to pulmonary hypertension, another serious and poorly understood medical condition that is now treated symptomatically.

For assay [3], the system named is C57L/J (L/J) mice. Put plainly: C57L/J model, Masson's trichrome staining for collagen in alveoli. The assay is classed as in vivo, mouse. How it is done:
as §1
In normal, Sham-irradiated lung (FIG. 5A), there are only traces of green collagen staining in the alveolar walls (arrows). In contrast, 15 weeks post-RT, early collagen deposition is widespread throughout the alveolar walls.
We quantified the area of green trichrome staining in the trichrome-stained slides (including those shown in FIG. 5), using ImageJ, normalized for the total area of alveolar tissue in the same photomicrograph, similar to the analysis used for FIG. 4.

Assay [4] relates to C57L/J (L/J) mice. Put plainly: C57L/J model, hydroxyproline assay on whole mouse lungs (total lung collagen). The following applies: 15 weeks post-RT, single dose, initial assay results. It counts as in vivo. How it is done:
as §1
As a second measure of pulmonary collagen levels, we carried out the hydroxyproline assay on whole mouse lungs from the same groups of mice as given in the legend to FIG. 3. There is a trend toward increased collagen at 15 weeks post-RT, which is confounded to some extent by the presence of collagen in connective tissue of blood vessels and airways in normal lung. Additional samples are being assayed in the near future.

In assay [5] the test system is C57L/J (L/J) mice. Nature of the assay: C57L/J model, toluidine blue staining for mast cells in lung sections. It counts as in vivo, mouse. To be noted: 15 weeks post-RT, single dose 24 h post-RT. The protocol:
as §1
There were no detectable subpleural or interstitial mast cells in any sham controls, nor in any lungs at 10 weeks post-RT. At 15 weeks post-RT there was a dramatic accumulation of mast cells subpleurally (black arrows) and in the alveolar interstitium (red arrows). These were most abundant in mice treated with RT+PBS (FIG. 8A), with a reduction by over 50% in mice give 77427 (FIG. 8B). Total numbers of subpleural mast cells have been quantified for all of the lung tissue on each slide and will be normalized for the length of pleura present.

The structures appear in SMILES notation.

Take `CCN1C=CC=C/C1=C1/C2=NC(=C(c3cccc[n+]3CC)C3=NC(=C(c4cccc[n+]4CC)c4ccc([n-]4)C(c4cccc[n+]4CC)=C4C=CC1=N4)C=C3)C=C2.[Cl-].[Cl-].[Cl-].[Cl-].[Cl-].[Mn+3]` [AEOL10113]: the “severity of RTP” value in assay [1] was “can reduce the severity of RTP”.
With `Nc1nc(Cl)cc(NCCO)n1` [compound 77427], in the assay on C57BL/6 mice, the “interstitial SMA staining (myofibroblasts in alveolar walls), early indicator of radiation fibrosis” value is reported as “abrogates this interstitial SMA staining”. For the same compound, the “SMA+ myofibroblasts in small distal blood vessels” value in the assay on C57L/J (L/J) mice [2] (C57L/J lung 15 wks post-15 Gy, single dose IP 24 h post-RT) is listed as “greatly reduces SMA+ myofibroblasts in small distal blood vessels”. In the assay with C57L/J (L/J) mice [2] (C57L/J, 15 weeks post-RT, single dose 10 nmol per mouse IP at 24 hours post-RT), the “early evidence of pulmonary fibrosis (SMA+ cells)” value is “abrogated”. The “trichrome (collagen) levels in the alveoli” value in the assay on C57L/J (L/J) mice [3] (C57L/J lung 15 weeks post-15 Gy, single dose 24 h post-RT) is reported as “reduced trichrome levels in the alveoli to near baseline levels”. In addition, in the assay with C57L/J (L/J) mice [3] (C57L/J, 15 weeks post-high dose RT, RT+PBS vs RT+77427 P<0.001), the “alveolar collagen deposition (quantified trichrome area normalized for alveolar tissue area)” value was “abrogates alveolar collagen deposition”. In the assay on C57L/J (L/J) mice [4], the “hydroxyproline content of whole lung (total lung collagen)” value is “do not have elevated hydroxyproline content”. For the same compound, in the assay with C57L/J (L/J) mice [5], the “reduction of mast cells (subpleural and alveolar interstitium) versus RT+PBS” value is “over 50%”; the “subpleural mast cells (toluidine blue staining)” value is reported as “reduced”.

Source of the values: patent US20150297591A1, “METHODS OF TREATING PULMONARY FIBROSIS” (Duke University, priority 2012, published 2015).
